The source of these data is patent US5373090A, “Aprotinin analogues and a process for the production thereof” (Novo Nordisk A/S, priority 1988, dated 1994).

Experiment [1] deals with T1, recombinant human protein Ca (Homo sapiens, UniProt P04070).
T1 construct: purchased ZymoGenetics, Inc. (Seattle, Wash.)
The experiment can be described thus: Inhibition of amidolytic activity of protein Ca (substrate S2366). Conditions: graphical Dixon method, read-out: Ki, amidolytic activity, Prot. Ca. In kind it is biochemical. The protocol: (§1) The concentration was calculated using E280 nm=8.3 and Mr =6500. Human plasma kallikrein was obtained from Sigma (St. Louis, Mo.), bovine factor Xa was purified according to (H. Nobukazu et al. J.Biochem. 97 (1985)1347-1355), human factor IIa (thrombin) was a gift from Dr. W. Lawson (New York State Dept. of Health, Albany, N.Y.), recombinant human factor VIIa was from NOVO (Bagsvaerd, Denmark) and recombinant human protein Ca was from ZymoGenetics, Inc. (Seattle, Wash.). Substrate S 2302 (H-D-Pro-Phe-Arg-p-nitroanilide) substrate S2238 (H-D-Phe-Pip-Arg-p-nitroanilide) and substrate S2366 (Glu-Pro-Arg-p-nitroanilide) were from Kabi (Stockholm, Sweden). Substrate FXa-1 (methoxycarbonyl DCH-Gly-Arg-p-nitroanilide) was from NycoMed (Oslo, Norway). The experiments were performed in 100 mM NaCl, 50 mM Tris-HCl 0.01% Tween80, pH 7.4 at 25° C.
(§2) Substrate S 2302 (0.6 mM) was added to a final volume of 300 μand the rate of nitroaniline generation was measured at 405 nm by means of a Micro ELISA® Autoreader MR 580 from Dynatech Laboratories. […]
(§3) The analogues were also tested for inhibition of the amidolytic activity of the serine proteases: bovine factor Xa, human factor IIa, human recombinant factor VIIa and human recombinant protein Ca. […] Finally the analogues were analysed for an effect on the coagulation factors of human plasma by means of two clotting tests. […]

In experiment [2] the test system is coagulation factors of human plasma. The experiment can be described thus: Clotting test, activated thromboplastin time (APTT). Conditions: 1.0 μM aprotinin analogue. In kind it is biochemical. Here is the method: (§4) The analogues were also tested for inhibition of the amidolytic activity of the serine proteases: bovine factor Xa, human factor IIa, human recombinant factor VIIa and human recombinant protein Ca. The experiments were performed essentially as described for plasma kallikrein only appropriate substrates were used. Finally the analogues were analysed for an effect on the coagulation factors of human plasma by means of two clotting tests. These tests, the prothrombin time (PTT) and the activated thromboplastin time (APTT) were performed with General Diagnostics® reagents from Organon (Durham, N.C.) according to the directions given by the manufacturer.

Experiment [3] has the same test system. Put plainly: Clotting test, prothrombin time (PTT). It is filed as biochemical. Conditions: 1.0 μM aprotinin analogue. Here is the method:
as §4

In experiment [4] the target is T2, human factor IIa (thrombin) (Homo sapiens, UniProt P00734).
T2 construct: human factor IIa (thrombin) was a gift from Dr. W. Lawson; gift from Dr. W. Lawson (New York State Dept. of Health, Albany, N.Y.)
The experiment can be described thus: Inhibition of amidolytic activity of factor IIa (substrate S2238). It is filed as biochemical. The following applies: 1.0 μM aprotinin analogue. The protocol:
as §1, §2, §3

In experiment [5] the target is T3, recombinant human factor VIIa (Homo sapiens, UniProt P08709).
T3 construct: recombinant human factor VIIa was from NOVO (Bagsvaerd, Denmark)
T3 sequence (P08709 213-466 limits assumed): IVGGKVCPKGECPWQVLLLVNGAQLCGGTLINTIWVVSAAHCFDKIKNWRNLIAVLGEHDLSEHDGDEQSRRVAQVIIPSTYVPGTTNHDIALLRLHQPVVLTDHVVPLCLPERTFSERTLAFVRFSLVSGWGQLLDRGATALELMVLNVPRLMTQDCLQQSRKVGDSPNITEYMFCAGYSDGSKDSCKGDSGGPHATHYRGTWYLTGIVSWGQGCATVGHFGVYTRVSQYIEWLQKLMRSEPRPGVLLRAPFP
T3 sequence (P08709 61-212 partner limits assumed): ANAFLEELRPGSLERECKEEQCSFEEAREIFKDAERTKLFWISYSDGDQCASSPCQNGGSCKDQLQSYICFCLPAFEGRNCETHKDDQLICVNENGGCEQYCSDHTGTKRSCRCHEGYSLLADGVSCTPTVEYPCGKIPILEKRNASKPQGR
The experiment can be described thus: Inhibition of amidolytic activity of factor VIIa. It is filed as biochemical. The following applies: 1.0 μM aprotinin analogue. Here is the method: as §1, §2, §3

The next experiment addresses T4, Human plasma kallikrein (Homo sapiens, UniProt P03952).
T4 construct: purchased Sigma (St. Louis, Mo.)
The experiment can be described thus: Inhibition of amidolytic activity of human plasma kallikrein (substrate S2302). It is filed as biochemical. Here is the method:
as §1
Substrate S 2302 (0.6 mM) was added to a final volume of 300 μand the rate of nitroaniline generation was measured at 405 nm by means of a Micro ELISA® Autoreader MR 580 from Dynatech Laboratories. The rate is proportional to the concentration of free enzyme.

In another experiment the target is T5, bovine factor Xa (Bos taurus, UniProt P00743).
T5 construct: bovine factor Xa was purified according to (H. Nobukazu et al. J.Biochem. 97 (1985)1347-1355); from tissue; bovine plasma inferred
The experiment can be described thus: Inhibition of amidolytic activity of factor Xa (substrate FXa-1). It is filed as biochemical. Conditions: 1.0 μM aprotinin analogue; substrate FXa1. Here is the method:
as §1, §2, §3

Another experiment concerns the target T6, granulocyte elastase (Homo sapiens, UniProt P08246).
T6 sequence (P08246 30-267): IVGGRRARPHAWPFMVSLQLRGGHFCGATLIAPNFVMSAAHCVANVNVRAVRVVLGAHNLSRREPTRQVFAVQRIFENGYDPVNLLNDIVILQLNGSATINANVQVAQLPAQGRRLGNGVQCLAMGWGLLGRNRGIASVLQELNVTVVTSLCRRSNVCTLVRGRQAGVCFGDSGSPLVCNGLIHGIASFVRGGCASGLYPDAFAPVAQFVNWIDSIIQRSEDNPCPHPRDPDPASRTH
Conditions: known analogues, as claimed in prior art; cited from earlier work.

The test system of the next experiment is kallikrein. Conditions: known analogues, as claimed in prior art; cited from earlier work.
In the next experiment the target is T7, trypsin (Bos taurus, UniProt P00760).
T7 construct: gene PRSS1
T7 sequence (P00760 24-246): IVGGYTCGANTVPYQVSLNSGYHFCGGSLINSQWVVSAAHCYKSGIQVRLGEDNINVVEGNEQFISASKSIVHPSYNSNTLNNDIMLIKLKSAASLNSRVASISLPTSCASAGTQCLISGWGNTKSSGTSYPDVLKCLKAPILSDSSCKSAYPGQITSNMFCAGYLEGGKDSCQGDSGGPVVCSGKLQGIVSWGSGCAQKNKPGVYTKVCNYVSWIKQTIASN
The following applies: known analogues, as claimed in prior art; cited from earlier work.

The test system of a further experiment is collagenase. Conditions: known analogues, as claimed in prior art; cited from earlier work.

T4 sequence (P03952 391-638 limits assumed): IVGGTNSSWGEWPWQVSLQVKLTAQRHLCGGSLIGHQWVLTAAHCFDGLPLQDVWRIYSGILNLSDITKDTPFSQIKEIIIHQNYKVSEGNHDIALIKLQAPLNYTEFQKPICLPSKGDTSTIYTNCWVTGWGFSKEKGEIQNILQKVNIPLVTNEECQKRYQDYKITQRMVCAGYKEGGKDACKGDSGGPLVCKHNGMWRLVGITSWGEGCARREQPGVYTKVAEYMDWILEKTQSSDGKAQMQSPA
T4 sequence (P03952 20-390 partner limits assumed): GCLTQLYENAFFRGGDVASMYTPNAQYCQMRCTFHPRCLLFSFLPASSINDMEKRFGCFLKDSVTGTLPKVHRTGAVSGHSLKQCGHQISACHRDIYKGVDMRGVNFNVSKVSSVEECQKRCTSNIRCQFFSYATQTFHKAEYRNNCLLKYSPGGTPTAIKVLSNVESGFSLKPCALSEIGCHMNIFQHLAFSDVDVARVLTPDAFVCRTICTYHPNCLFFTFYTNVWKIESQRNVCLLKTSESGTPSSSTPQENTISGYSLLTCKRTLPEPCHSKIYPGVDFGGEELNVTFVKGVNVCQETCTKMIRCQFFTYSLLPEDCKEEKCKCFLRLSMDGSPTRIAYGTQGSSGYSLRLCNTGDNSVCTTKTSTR
T5 sequence (P00743 234-492 limits assumed): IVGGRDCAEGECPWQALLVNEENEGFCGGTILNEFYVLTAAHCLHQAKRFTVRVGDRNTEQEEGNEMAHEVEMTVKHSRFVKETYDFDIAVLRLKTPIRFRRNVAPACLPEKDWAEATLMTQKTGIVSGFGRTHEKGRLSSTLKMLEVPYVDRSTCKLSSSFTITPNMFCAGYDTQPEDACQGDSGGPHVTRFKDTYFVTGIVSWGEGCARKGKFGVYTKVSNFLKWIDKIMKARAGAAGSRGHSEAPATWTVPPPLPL
T5 sequence (P00743 41-180 partner limits assumed): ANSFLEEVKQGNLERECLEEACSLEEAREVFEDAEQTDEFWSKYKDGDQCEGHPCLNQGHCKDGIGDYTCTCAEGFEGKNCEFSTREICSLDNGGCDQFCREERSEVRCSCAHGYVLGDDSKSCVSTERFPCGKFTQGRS
T1 sequence (P04070 212-461 limits assumed): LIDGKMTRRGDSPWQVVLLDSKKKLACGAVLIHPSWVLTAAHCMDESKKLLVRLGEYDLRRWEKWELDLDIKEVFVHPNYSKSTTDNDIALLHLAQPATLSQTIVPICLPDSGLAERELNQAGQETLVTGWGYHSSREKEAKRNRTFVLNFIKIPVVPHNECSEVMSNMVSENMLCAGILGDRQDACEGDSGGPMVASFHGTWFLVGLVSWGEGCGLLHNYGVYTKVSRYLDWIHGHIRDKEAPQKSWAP
T1 sequence (P04070 43-197 partner limits assumed): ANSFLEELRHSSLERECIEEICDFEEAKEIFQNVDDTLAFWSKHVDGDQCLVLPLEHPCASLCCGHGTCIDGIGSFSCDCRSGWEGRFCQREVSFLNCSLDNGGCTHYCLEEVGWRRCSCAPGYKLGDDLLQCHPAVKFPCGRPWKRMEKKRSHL

As for “Aprotinin (bovine pancreatic trypsin inhibitor, BPTI) [Native Aprotinin]”, the Ki in [1] is 400 nM; on Human plasma kallikrein (graphical Dixon method, substrate S2302, pH 7.4, 25° C.), 180 nM. Moreover, in [2], the “Clot assays APTT” value is recorded as “-”. Further, the “Clot assays PTT” value in experiment [3] is “-”. In experiment [4], the “Amidolytic activity of FIIa, inhibition” value is “-”. In experiment [5], the “Amidolytic activity of FVIIa, inhibition” value is listed as “-”. Moreover, on Human plasma kallikrein (kallikrein 3 nM, aprotinin 0-20 nM, 30 minutes), the “Inhibition of plasma kallikrein (in words, FIGS. 5A and 5B)” value is reported as “moderate inhibition”. Moreover, the “Amidolytic activity of FXa, inhibition” value on bovine factor Xa is listed as “-”.
On to aprotinin(15Ala), for which the “Effect on elastase (in words)” value at granulocyte elastase is on record as “only a weak inhibitory effect on elastase”.
Take aprotinin(15Gly): in the experiment on kallikrein, the “Inhibition of kallikrein (in words)” value was “surprisingly inhibits kallikrein”. For the same substance, the “Antitrypsin activity (in words)” value on trypsin is given as “outstanding antitrypsin activity”.
As for aprotinin(15 Val), the “Inhibition effect on collagenase (in words)” value in the experiment on collagenase is “inhibition effect on collagenase”. Besides, the “Effect on elastase (in words)” value at granulocyte elastase is “relatively high selectivity for granulocyte elastase”.
